# Test results from US7417156B2, “Orally active, antimalarial, anticancer, artemisinin-derived trioxane dimers” (Johns Hopkins University, priority 2002, dated 2008).
# How the values were obtained:
# MCF7 = experiment: NCI 60 cell line panel screen (SRB); assay type: cell-based, human
# IGROVI = experiment: NCI 60 cell line panel screen (SRB); assay type: cell-based, human
# OVCAR-5 = experiment: NCI 60 cell line panel screen (SRB); assay type: cell-based, human
# KM12 = experiment: NCI 60 cell line panel screen (SRB); assay type: cell-based, human
# NCI-H522 = experiment: NCI 60 cell line panel screen (SRB); assay type: cell-based, human
# HOP-92 = experiment: NCI 60 cell line panel screen (SRB); assay type: cell-based, human
# SK-MEL-28 = experiment: NCI 60 cell line panel screen (SRB); assay type: cell-based, human
# 786-0 = experiment: NCI 60 cell line panel screen (SRB); assay type: cell-based, human
# M14 = experiment: NCI 60 cell line panel screen (SRB); assay type: cell-based, human; details: M-14 (Melanoma); TGI: PG=0
# NCI-H23 = experiment: NCI 60 cell line panel screen (SRB); assay type: cell-based, human
# ACHN = experiment: NCI 60 cell line panel screen (SRB); assay type: cell-based, human
# U251 = experiment: NCI 60 cell line panel screen (SRB); assay type: cell-based, human; details: U251 (CNS Cancer)
# HS 578T = experiment: NCI 60 cell line panel screen (SRB); assay type: cell-based, human
# TK-10 = experiment: NCI 60 cell line panel screen (SRB); assay type: cell-based, human
# HCT-15 = experiment: NCI 60 cell line panel screen (SRB); assay type: cell-based, human
# NCI/ADR-RES = experiment: NCI 60 cell line panel screen (SRB); assay type: cell-based, human
# HL-60(TB) = experiment: NCI 60 cell line panel screen (SRB); assay type: cell-based, human
# HT29 = experiment: NCI 60 cell line panel screen (SRB); assay type: cell-based, human
# RPMI-8226 = experiment: NCI 60 cell line panel screen (SRB); assay type: cell-based, human
# SF-268 = experiment: NCI 60 cell line panel screen (SRB); assay type: cell-based, human
# CCRF-CEM = experiment: NCI 60 cell line panel screen (SRB); assay type: cell-based, human
# UACC-257 = experiment: NCI 60 cell line panel screen (SRB); assay type: cell-based, human
# NCI-H322M = assay type: cell-based
# A549/ATCC = experiment: NCI 60 cell line panel screen (SRB); assay type: cell-based, human
structure (smiles),measurement,setting,value
"C[C@@H]1CC[C@H]2[C@@H](C)C(CC(O)(COC(=O)CCC(=O)O)CC3OC4O[C@]5(C)CC[C@H]6[C@H](C)CC[C@@H]([C@H]3C)C46OO5)OC3O[C@]4(C)CCC1C32OO4 (stereo partly shown) [Compound 9, tertiary alcohol primary succinate ester]",Log10GI50,"MCF7; Breast Cancer, MCF7",<−8.30
same,Log10LC50,"MCF7; MCF7 (Breast Cancer), LC50: PG=−50",>−4.30 log10M
same,Log10TGI50,"MCF7; MCF7 (Breast Cancer), TGI: PG=0",>−4.30 log10M
same,Log10LC50,"IGROVI; IGROVI (Ovarian Cancer), LC50: PG=−50",>−4.30 log10M
same,Log10TGI50,"IGROVI; IGROVI (Ovarian Cancer), TGI: PG=0",>−4.30 log10M
same,Log10GI50,"IGROVI; Ovarian Cancer, IGROVI",−4.97
same,Log10LC50,"OVCAR-5; OVCAR-5 (Ovarian Cancer), LC50: PG=−50",>−4.30 log10M
same,Log10GI50,"OVCAR-5; Ovarian Cancer, OVCAR-5",<−8.30
same,Log10GI50,"KM12; Colon Cancer, KM12",<−8.30
same,Log10LC50,"KM12; KM12 (Colon Cancer), LC50: PG=−50",−4.36 log10M
same,Log10TGI50,"KM12; KM12 (Colon Cancer), TGI: PG=0",<−8.30 log10M
same,Log10TGI50,"NCI-H522; NCI-H522 (Non-Small Cell Lung Cancer), TGI: PG=0",>−4.30 log10M
same,Log10LC50,"NCI-H522; NCI-H-522 (Non-Small Cell Lung Cancer), LC50: PG=−50",>−4.30 log10M
same,Log10GI50,"NCI-H522; Non-Small Cell Lung Cancer, NCI-H522",−4.91
same,Log10LC50,"HOP-92; HOP-92 (Non-Small Cell Lung Cancer), LC50: PG=−50",>−4.30 log10M
same,Log10TGI50,"HOP-92; HOP-92 (Non-Small Cell Lung Cancer), TGI: PG=0",>−4.30 log10M
same,Log10GI50,"HOP-92; Non-Small Cell Lung Cancer, HOP-92",<−8.30
same,Log10GI50,"SK-MEL-28; Melanoma, SK-MEL-28",<−8.30
same,Log10LC50,"SK-MEL-28; SK-MEL-28 (Melanoma), LC50: PG=−50",>−4.30 log10M
same,Log10TGI50,"SK-MEL-28; SK-MEL-28 (Melanoma), TGI: PG=0",>−4.30 log10M
same,Log10LC50,"786-0; 786-0 (Renal Cancer), LC50: PG=−50",>−4.30 log10M
same,Log10GI50,"786-0; Renal Cancer, 786-0",<−8.30
same,Log10TGI50,M14,>−4.30 log10M
same,Log10LC50,"NCI-H23; NCI-H23 (Non-Small Cell Lung Cancer), LC50: PG=−50",>−4.30 log10M
same,Log10TGI50,"NCI-H23; NCI-H23 (Non-Small Cell Lung Cancer), TGI: PG=0",−4.65 log10M
same,Log10GI50,"NCI-H23; Non-Small Cell Lung Cancer, NCI-H23",<−8.30
same,Log10LC50,"ACHN; ACHN (Renal Cancer), LC50: PG=−50",>−4.30 log10M
same,Log10TGI50,"ACHN; ACHN (Renal Cancer), TGI: PG=0",−4.74 log10M
same,Log10GI50,"ACHN; Renal Cancer, ACHN",−6.67
same,Log10LC50,U251; LC50: PG=−50,>−4.30 log10M
same,Log10TGI50,U251; TGI: PG=0,−4.75 log10M
same,Log10GI50,"HS 578T; Breast Cancer, HS 578T",−4.36
same,Log10LC50,"HS 578T; HS 578T (Breast Cancer), LC50: PG=−50",>−4.30 log10M
same,Log10TGI50,"HS 578T; HS 578T (Breast Cancer), TGI: PG=0",>−4.30 log10M
same,Log10GI50,"TK-10; Renal Cancer, TK-10",<−8.30
same,Log10LC50,"TK-10; TK-10 (Renal Cancer), LC50: PG=−50",>−4.30 log10M
same,Log10TGI50,"TK-10; TK-10 (Renal Cancer), TGI: PG=0",−4.60 log10M
same,Log10GI50,"HCT-15; Colon Cancer, HCT-15",<−8.30
same,Log10LC50,"HCT-15; HCT-15 (Colon Cancer), LC50: PG=−50",>−4.30 log10M
same,Log10TGI50,"HCT-15; HCT-15 (Colon Cancer), TGI: PG=0",−5.01 log10M
same,Log10GI50,"NCI/ADR-RES; Breast Cancer, NCI/ADR-RES",−5.61
same,Log10LC50,"NCI/ADR-RES; NCI/ADR-RES (Breast Cancer), LC50: PG=−50",>−4.30 log10M
same,Log10TGI50,"NCI/ADR-RES; NCI/ADR-RES (Breast Cancer), TGI: PG=0",>−4.30 log10M
same,Log10LC50,"HL-60(TB); HL-60(TB) (Leukemia), LC50: PG=−50",>−4.30 log10M
same,Log10GI50,"HL-60(TB); Leukemia, HL-60(TB)",<−8.30
same,Log10GI50,"HT29; Colon Cancer, HT29",<−8.30
same,Log10LC50,"HT29; HT29 (Colon Cancer), LC50: PG=−50",>−4.30 log10M
same,Log10GI50,"RPMI-8226; Leukemia, RPMI-8226",<−8.30
same,Log10LC50,"RPMI-8226; RPMI-8226 (Leukemia), LC50: PG=−50",>−4.30 log10M
same,Log10TGI50,"RPMI-8226; RPMI-8226 (Leukemia), TGI: PG=0",>−4.30 log10M
same,Log10GI50,"SF-268; CNS Cancer, SF-268",−5.48
same,Log10LC50,"SF-268; SF-268 (CNS Cancer), LC50: PG=−50",>−4.30 log10M
same,Log10TGI50,"SF-268; SF-268 (CNS Cancer), TGI: PG=0",>−4.30 log10M
same,Log10LC50,"CCRF-CEM; CCRF-CEM (Leukemia), LC50: PG=−50",>−4.30 log10M
same,Log10TGI50,"CCRF-CEM; CCRF-CEM (Leukemia), TGI: PG=0",>−4.30 log10M
same,Log10GI50,"CCRF-CEM; Leukemia, CCRF-CEM",<−8.30
same,Log10GI50,"UACC-257; Melanoma, UACC-257",−4.89
same,Log10LC50,"UACC-257; UACC-257 (Melanoma), LC50: PG=−50",>−4.30 log10M
same,Log10TGI50,"UACC-257; UACC-257 (Melanoma), TGI: PG=0",>−4.30 log10M
same,Log10TGI50,"NCI-H322M; NCI-H322M (Non-Small Cell Lung Cancer), TGI: PG=0",>−4.30 log10M
same,Log10GI50,"NCI-H322M; Non-Small Cell Lung Cancer, NCI-H322M",−5.07
same,Log10LC50,"A549/ATCC; A549/ATCC (Non-Small Cell Lung Cancer), LC50: PG=−50",>−4.30 log10M
same,Log10TGI50,"A549/ATCC; A549/ATCC (Non-Small Cell Lung Cancer), TGI: PG=0",>−4.30 log10M
same,Log10GI50,"A549/ATCC; Non-Small Cell Lung Cancer, A549/ATCC",−4.86
